Target: T1, NA transporter (Rattus norvegicus, UniProt Q9WTR4)
T1 construct: synaptosomes from rat brain regions were freshly isolated; from tissue; host or cells: P2 synaptosome fraction from hypothalamus of male rat brain
Test: Noradrenalin uptake inhibition (NA-uptake) in synaptosomes
Format: biochemical
Conditions: rat hypothalamus synaptosomes
Text: Tests on Noradrenalin Uptake Inhibition (NA-Uptake Inhibition)
In order to be able to carry out these in vitro studies, synaptosomes from rat brain regions were freshly isolated.

T1 sequence (Q9WTR4 1-597): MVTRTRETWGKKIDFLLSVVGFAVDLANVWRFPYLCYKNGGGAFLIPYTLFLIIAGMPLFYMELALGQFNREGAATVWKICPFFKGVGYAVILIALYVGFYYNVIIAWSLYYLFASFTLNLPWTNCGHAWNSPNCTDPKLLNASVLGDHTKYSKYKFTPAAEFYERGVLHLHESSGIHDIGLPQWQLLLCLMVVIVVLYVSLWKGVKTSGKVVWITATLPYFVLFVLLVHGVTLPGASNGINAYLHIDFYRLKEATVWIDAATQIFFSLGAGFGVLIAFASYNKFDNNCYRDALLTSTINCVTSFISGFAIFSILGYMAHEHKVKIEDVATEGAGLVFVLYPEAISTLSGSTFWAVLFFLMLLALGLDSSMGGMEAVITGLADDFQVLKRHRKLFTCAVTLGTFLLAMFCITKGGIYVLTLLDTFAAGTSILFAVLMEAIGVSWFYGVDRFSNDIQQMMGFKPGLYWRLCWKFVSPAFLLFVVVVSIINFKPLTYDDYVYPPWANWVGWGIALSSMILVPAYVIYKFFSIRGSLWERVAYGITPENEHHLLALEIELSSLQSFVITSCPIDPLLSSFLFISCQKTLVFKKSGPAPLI

SMILES | inhibition at 10 µM [%] | also measured
O=C(C1=NOC2(CCN(S(=O)(=O)c3cccc(C(F)(F)F)c3)CC2)C1)N1CCN(c2cc(C(F)(F)F)ccn2)CC1 [Example 119] |  | NA-uptake, 10 μM, % inhibition: 43%
COc1ccc(S(=O)(=O)N2CCC3(CC2)CC(C(=O)NC2CCCC2OCc2ccccc2)=NO3)cc1 (stereo not shown) [Example 121, 8-(4-methoxy-benzenesulphonyl)-1-oxa-2,8-diaza-spiro[4,5]dec-2-ene-3-carboxylic acid (2-benzyloxy-cyclopentyl)-amide] |  | NA-uptake, 10 μM, % inhibition (10 µM): 55%
COc1cccc(CCNC(=O)C2=NOC3(CCN(S(=O)(=O)c4ccc(F)cc4)CC3)C2)c1 [Example 124, 8-(4-fluoro-benzenesulphonyl)-1-oxa-2,8-diaza-spiro[4,5]dec-2-ene-3-carboxylic acid [2-(3-methoxy-phenyl)-ethyl]-amide] | 49 | 
Cc1oc(C(C)(C)C)cc1C(=O)N1CCC2(CC1)CC(C(=O)NC1CCCC1)=NO2 [Example 126, 8-(5-tert-butyl-2-methyl-furan-3-carbonyl)-1-oxa-2,8-diaza-spiro[4,5]dec-2-ene-3-carboxylic acid cyclopentylamide] | 67 | 
O=C(NCc1cccs1)C1=NOC2(CCN(S(=O)(=O)c3ccc(Cl)cc3)CC2)C1 [Example 127, 8-(4-chloro-benzenesulphonyl)-1-oxa-2,8-diaza-spiro[4,5]dec-2-ene-3-carboxylic acid (thiophen-2-ylmethyl)-amide] | 51 | 
O=C(NCc1cccc2ccccc12)C1=NOC2(CCN(S(=O)(=O)c3ccc(Cl)s3)CC2)C1 [Example 128, 8-(5-chloro-thiophene-2-sulphonyl)-1-oxa-2,8-diaza-spiro[4,5]dec-2-ene-3-carboxylic acid naphthalen-l-ylmethyl-amide] |  | NA-uptake, 10 μM, % inhibition: 45%
Cc1ccccc1N1CCN(C(=O)C2=NOC3(CCN(S(=O)(=O)Cc4ccccc4)CC3)C2)CC1 [Example 133, (8-phenylmethanesulphonyl-1-oxa-2,8-diaza-spiro[4,5]dec-2-en-3-yl)-(4-o-tolyl-piperazin-l-yl)-methanone] |  | NA-uptake, 10 μM, % inhibition: 48%
O=C(NCc1cccs1)C1=NOC2(CCN(C(=O)c3ccc(SC(F)(F)F)cc3)CC2)C1 [Example 135, 8-(4-trifluoromethylsulphanyl-benzoyl)-1-oxa-2,8-diaza-spiro[4,5]dec-2-ene-3-carboxylic acid (thiophen-2-ylmethyl)-amide] | 56 | 
O=C(NCc1ccccc1)C1=NOC2(CCN(S(=O)(=O)c3cccs3)CC2)C1 [Example 136, 8-(thiophene-2-sulphonyl)-1-oxa-2,8-diaza-spiro[4,5]dec-2-ene-3-carboxylic acid benzylamide] | 53 | 
CC(NC(=O)C1=NOC2(CCN(S(=O)(=O)c3ccc(Cl)s3)CC2)C1)c1cccc2c1OCCO2 (stereo not shown) [Example 140, 8-(5-chloro-thiophene-2-sulphonyl)-1-oxa-2,8-diaza-spiro[4,5]dec-2-ene-3-carboxylic acid [1-(2,3-dihydro-benzo[1,4]dioxin-5-yl)-ethyl]-amide] | 83 | 
O=C(NCc1cccs1)C1=NOC2(CCN(C(=O)c3ccc(Br)cc3)CC2)C1 [Example 141] |  | NA-uptake, 10 μM, % inhibition: 61%
O=C(OCc1ccccc1)N1CCN(C(=O)C2=NOC3(CCN(S(=O)(=O)c4ccc(F)cc4)CC3)C2)CC1 [Example 143] |  | NA-uptake, 10 μM, % inhibition: 47%
O=C(NCc1cccs1)C1=NOC2(CCN(C(=O)c3cccc(Cl)c3F)CC2)C1 [Example 146, 8-(3-chloro-2-fluorobenzoyl)-1-oxa-2,8-diaza-spiro[4,5]dec-2-ene-3-carboxylic acid (thiophen-2-ylmethyl)-amide] | 61 | 
CC(Oc1ccccc1)C(=O)N1CCC2(CC1)CC(C(=O)NCc1ccccc1)=NO2 (stereo not shown) [Example 149, 8-(2-phenoxy-propionyl)-1-oxa-2,8-diaza-spiro[4,5]dec-2-ene-3-carboxylic acid benzylamide] | 50 | 
O=C(NC1CCCC1)C1=NOC2(CCN(C(=O)c3cccnc3Oc3ccccc3)CC2)C1 [Example 153, 8-(2-phenoxy-pyridine-3-carbonyl)-1-oxa-2,8-diaza-spiro[4,5]dec-2-ene-3-carboxylic acid cyclopentylamide] | 45 | 
CCOC(=O)C1CCCCN1C(=O)C1=NOC2(CCN(S(=O)(=O)c3ccc(Cl)s3)CC2)C1 (stereo not shown) [Example 155, 1-[8-(5-chloro-thiophene-2-sulphonyl)-1-oxa-2,8-diaza-spiro[4,5]dec-2-ene-3-carbonyl]-piperidine-2-carboxylic acid ethyl ester] | 41 | 
CN(C)S(=O)(=O)N1CCC2(CC1)CC(C(=O)NC1CCCC1OCc1ccccc1)=NO2 (stereo not shown) [Example 163, 8-dimethylsulphamoyl-1-oxa-2,8-diaza-spiro[4,5]dec-2-ene-3-acarboxylic cid (2-benzyloxy-cyclopentyl)-amide] |  | NA-uptake, 10 μM, % inhibition: 62%
O=C(NCc1ccccc1)C1=NOC2(CCN(C(=O)COc3cccc(Cl)c3)CC2)C1 [Example 166, 8-[2-(3-chloro-phenoxy)-acetyl]-1-oxa-2,8-diaza-spiro[4,5]dec-2-ene-3-carboxylic acid benzylamide] | 53 | 
CC(Cc1ccc(Cl)cc1)NC(=O)C1=NOC2(CCN(S(=O)(=O)c3ccc(Cl)s3)CC2)C1 (stereo not shown) [Example 168, 8-(5-chloro-thiophene-2-sulphonyl)-1-oxa-2,8-diaza-spiro[4,5]dec-2-ene-3-carboxylic acid [2-(4-chloro-phenyl)-1-methyl-ethyl]-amide] | 79 | 

Continued, in another order:

inhibition at 10 µM [%] | SMILES | also measured
46 | O=C(NCC1CC1)C1=NOC2(CCN(C(=O)CCCOc3ccccc3)CC2)C1 [Example 118, 8-(4-phenoxy-butyryl)-1-oxa-2,8-diaza-spiro[4,5]dec-2-ene-3-carboxylic acid cyclopropylmethyl-amide] | 
40 | O=C(NCC1CC1)C1=NOC2(CCN(C(=O)c3cc(C(F)(F)F)ccc3Cl)CC2)C1 [Example 120, 8-(2-chloro-5-trifluoromethyl-benzoyl)-1-oxa-2,8-diaza-spiro(4,5]dec-2-ene-3-carboxylic acid cyclopropylmethyl-amide] | 
41 | CCOC(=O)N1CCC(NC(=O)C2=NOC3(CCN(S(=O)(=O)c4cccc(C(F)(F)F)c4)CC3)C2)CC1 [Example 122, 4-{[8-(3-trifluoromethyl-benzenesulphonyl)-1-oxa-2,8-diaza-spiro[4,5]dec-2-ene-3 carbonyl]-amino}-piperidine-1-carboxylic acid ethyl ester] | 
42 | CC(Oc1ccccc1)C(=O)N1CCC2(CC1)CC(C(=O)NCC1CC1)=NO2 (stereo not shown) [Example 123, 8-(2-phenoxy-propionyl)-1-oxa-2,8-diaza-spiro[4,5]dec-2-ene-3-carboxylic acid cyclopropylmethyl-amide] | 
40 | CSc1ncccc1C(=O)N1CCC2(CC1)CC(C(=O)NCC(C)C)=NO2 [Example 125, 8-(2-methylsulphanyl-pyridine-3-carbonyl)-1-oxa-2,8-diaza-spiro[4,5]dec-2-ene-3-carboxylic acid isobutyl-amide] | 
43 | O=C(NCCc1ccc(F)cc1)C1=NOC2(CCN(S(=O)(=O)c3ccc(OC(F)(F)F)cc3)CC2)C1 [Example 129, 8-(4-trifluoromethoxy-benzenesulphonyl)-1-oxa-2,8-diaza-spiro[4,5]dec-2-ene-3-carboxylic acid [2-(4-fluorophenyl)-ethyl]-amide] | 
57 | COc1ccc(C(=O)N2CCC3(CC2)CC(C(=O)NCc2ccccc2)=NO3)cc1 [Example 131, 8-(4-methoxy-benzoyl)-1-oxa-2,8-diaza-spiro[4,5]dec-2-ene-3-carboxylic acid benzylamide] | 
46 | O=C(NCc1cccc(Cl)c1)C1=NOC2(CCN(S(=O)(=O)c3cccc(C(F)(F)F)c3)CC2)C1 [Example 132, 8-(3-trifluoromethyl-benzenesulphonyl)-1-oxa-2,8-diaza-spiro[4,5]dec-2-ene-3-carboxylic acid 3-chlorobenzylamide] | 
51 | O=C(C1=NOC2(CCN(S(=O)(=O)Cc3ccccc3)CC2)C1)N1CCN(c2ccccn2)CC1 [Example 134, (8-phenylmethanesulphonyl-1-oxa-2,8-diaza-spiro[4,5]dec-2-en-3-yl)-(4-pyridin-2-yl-piperazin-1-yl)-methanone] | 
49 | CC(C)CNC(=O)C1=NOC2(CCN(C(=O)c3ccc(F)cc3)CC2)C1 [Example 137, 8-(4-fluoro-benzoyl)-1-oxa-2,8-diaza-spiro[4,5]dec-2-ene-3-carboxylic acid isobutyl-amide] | 
49 | COC(=O)c1ccccc1S(=O)(=O)N1CCC2(CC1)CC(C(=O)NCC(C)C)=NO2 [Example 138, 2-(3-isobutylcarbamoyl-1-oxa-2,8-diaza-spiro[4,5]dec-2-ene-8-sulphonyl)-benzoic acid methyl ester] | 
51 | CN(C)S(=O)(=O)N1CCC2(CC1)CC(C(=O)NC(Cc1ccccc1)C(=O)OC(C)(C)C)=NO2 (stereo not shown) [Example 139, 2-[(8-dimethylsulphamoyl-1-oxa-2,8-diaza-spiro[4,5]dec-2-ene-3-carbonyl)-amino]-3-phenyl-propionic acid tert-butyl ester] | 
49 | O=C(NCCCn1ccnc1)C1=NOC2(CCN(S(=O)(=O)c3ccc(F)cc3)CC2)C1 [Example 142, 8-(4-fluoro-benzenesulphonyl)-1-oxa-2,8-diaza-spiro[4,5]dec-2-ene-3-carboxylic acid (3-imidazol-1-yl-propyl)-amide] | 
46 | CC(C)CC(NC(=O)C1=NOC2(CCN(S(=O)(=O)c3cccs3)CC2)C1)C(=O)OC(C)(C)C (stereo not shown) [Example 145, 4-methyl-2-{[8-(thiophene-2-sulphonyl)-1-oxa-2,8-diaza-spiro[4,5]dec-2-ene-3-carbonyl]-amino]-pentanoic acid tert-butyl ester] | 
63 | N#CCCN(CCc1ccccn1)C(=O)C1=NOC2(CCN(S(=O)(=O)c3ccc(F)cc3)CC2)C1 [Example 167, 8-(4-fluoro-benzenesulphonyl)-1-oxa-2,8-diaza-spiro[4,5]dec-2-ene-3-carboxylic acid (2-cyano-ethyl)-(2-pyridin-2-yl-ethyl)-amide] | 

— patent US8557796B2, “Substituted 1-oxa-2,8-diaza-spiro [4,5] dec-2-ene derivatives and related treatment methods” (Gruenenthal GmbH, priority 2001, dated 2013)
